Data from patent US20190284162A1, “USE OF A DIFLUORO-(2-HYDROXYPROPYL)PYRIDINE COMPOUND AS A FUNGICIDE FOR CONTROL OF PHYTOPATHOGENIC FUNGI OF CORN” (Dow AgroSciences LLC, priority 2016, published 2019).

Assays:
Type in all cases: in vivo
Exserohilum turcicum = assay: Field assessment of Exserohilum turcicum (SETOTU) in corn
Source text: Field Assessment of Exserohilum turcicum (SETOTU) in Corn: A fungicidal treatment containing Compound I, tank mixed with an adjuvant (Agnique BP-420, 50% w/w at 0.3% v/v), was sprayed on corn plants once at the growth stage 51 (beginning tassel emergence) at rates of 50, 75, 100, and 150 g ai/ha. The treatment was part of an experimental trial designed as a randomized complete block with four replications. Compound I was applied at water volume of 140 L/ha, using a backpack precision plot sprayer. Disease severity was assessed as combined percent visual necrosis on leaves ear-1, ear and ear+1. Severity was assessed twice at 24 DAA1 (days after application 1) and 32 DAA1.

Cercospora zeae-maydis = assay: Field assessment of Cercospora zeae-maydis (CERCZM), grey leaf spot, in corn
Source text: Field Assessment of Cercospora zeae-Maydis (CERCZM) in Corn:
(§1) A fungicidal treatment containing Compound I, applied alone in an EC formulation at 100 grams of active ingredient per hectare (g ai/ha) and tank mixed with an adjuvant (Agnique BP-420, 50% w/w at 0.3% v/v), was sprayed on corn plants (ZEAMX, Formula variety) twice at the growth stages 18 (8 leaves unfolded, application A) and 39 (stem elongation; prior to tassle emergence, application B) at rates of 25, 50, 100, 125 and 150 g ai/ha. The experimental plots were inoculated with grey leaf spot 24 hr after each application. The treatment was part of an experimental trial designed as a randomized complete block with four replications and a plot of approximately 1×3 m. Compound I was applied at water volume of 200 L/ha, using a backpack precision plot sprayer (BKPCKAIR, 2 and 3 m band width, Flat Fan XR110.015 Nozzle) and pressurized at 45 psi.
(§2) Disease severity (percentage of visual diseased foliage on whole plot) was assessed six times (15-49 days after application B, DAAB). The disease infection was recorded following EPPO PP1/26 guideline prescriptions. Area under the disease progress curve (AUDPC) was calculated for each plot using the sets of recorded severity data. Relative AUDPC (% control based on AUDPC) was calculated as percent of the nontreated control.

Puccinia polysora = assay: Field assessment of Puccinia polysora (PUCCPY), brown rust, in corn
Source text: Field Assessment of Puccinia polysora (PUCCPY) in Corn:
as §1, with “P30R50” for “Formula”, “brown rust” for “grey leaf spot”
as §2

Phaeosphaeria maydis = assay: Field assessment of Phaeosphaeria maydis (PHSPMA), phaeosphaeria leaf spot, in corn
Source text: Field Assessment of Phaeosphaeria maydis (PHSPMA) in Corn:
as §1, with “P30R50” for “Formula”, “phaeosphaeria” for “grey”
as §2

[1] = 25 g ai/ha, with adjuvant Agnique BP-420, two applications
[2] = 50 g ai/ha, with adjuvant Agnique BP-420, two applications
[3] = 100 g ai/ha, with adjuvant Agnique BP-420, two applications
[4] = 100 g ai/ha, without adjuvant, two applications
[5] = 125 g ai/ha, with adjuvant Agnique BP-420, two applications
[6] = 150 g ai/ha, with adjuvant Agnique BP-420, two applications

Question: What does the source list for `N#Cc1ccc(Oc2ccc(C(F)(F)C(O)(Cn3ncnc3S)c3ccc(F)cc3F)nc2)cc1` (centres unmarked) [Compound I, 4-((6-(2-(2,4-difluorophenyl)-1,1-difluoro-2-hydroxy-3-(5-mercapto-1H-1,2,4-triazol-1-yl)propyl)pyridin-3-yl)oxy)benzonitrile]?
Answer: Disease severity: combined visual necrosis on leaves ear-1, ear and ear+1 (Exserohilum turcicum; 50 g ai/ha, 24 DAA1, tank mixed with Agnique BP-420, untreated control 36.1): 46.5%; Disease severity: combined visual necrosis on leaves ear-1, ear and ear+1 (Exserohilum turcicum; 50 g ai/ha, 32 DAA1, tank mixed with Agnique BP-420, untreated control 50.4): 45.5%; Disease severity: combined visual necrosis on leaves ear-1, ear and ear+1 (Exserohilum turcicum; 75 g ai/ha, 24 DAA1, tank mixed with Agnique BP-420, untreated control 36.1): 45.0%; Disease severity: combined visual necrosis on leaves ear-1, ear and ear+1 (Exserohilum turcicum; 75 g ai/ha, 32 DAA1, tank mixed with Agnique BP-420, untreated control 50.4): 44.2%; Disease severity: combined visual necrosis on leaves ear-1, ear and ear+1 (Exserohilum turcicum; 100 g ai/ha, 24 DAA1, tank mixed with Agnique BP-420, untreated control 36.1): 37.2%; Disease severity: combined visual necrosis on leaves ear-1, ear and ear+1 (Exserohilum turcicum; 100 g ai/ha, 32 DAA1, tank mixed with Agnique BP-420, untreated control 50.4): 31.6%; Disease severity: combined visual necrosis on leaves ear-1, ear and ear+1 (Exserohilum turcicum; 150 g ai/ha, 24 DAA1, tank mixed with Agnique BP-420, untreated control 36.1): 37.9%; Disease severity: combined visual necrosis on leaves ear-1, ear and ear+1 (Exserohilum turcicum; 150 g ai/ha, 32 DAA1, tank mixed with Agnique BP-420, untreated control 50.4): 33.3%; Disease (% Control) CERCZM, based on AUDPC (Cercospora zeae-maydis; [1]): B (51-75); Disease (% Control) CERCZM, based on AUDPC (Cercospora zeae-maydis; [2]): B (51-75); Disease (% Control) CERCZM, based on AUDPC (Cercospora zeae-maydis; [3]): B (51-75); Disease (% Control) CERCZM, based on AUDPC (Cercospora zeae-maydis; [4]): C (26-50); Disease (% Control) CERCZM, based on AUDPC (Cercospora zeae-maydis; [5]): A (76-100); Disease (% Control) CERCZM, based on AUDPC (Cercospora zeae-maydis; [6]): A (76-100); Disease (% Control) PUCCPY, based on AUDPC (Puccinia polysora; [1]): A (76-100); Disease (% Control) PUCCPY, based on AUDPC (Puccinia polysora; [2]): A (76-100); Disease (% Control) PUCCPY, based on AUDPC (Puccinia polysora; [3]): A (76-100); Disease (% Control) PUCCPY, based on AUDPC (Puccinia polysora; [4]): A (76-100); Disease (% Control) PUCCPY, based on AUDPC (Puccinia polysora; [5]): A (76-100); Disease (% Control) PUCCPY, based on AUDPC (Puccinia polysora; [6]): A (76-100); Disease (% Control) PHSPMA, based on AUDPC (Phaeosphaeria maydis; [1]): B (51-75); Disease (% Control) PHSPMA, based on AUDPC (Phaeosphaeria maydis; [2]): B (51-75); Disease (% Control) PHSPMA, based on AUDPC (Phaeosphaeria maydis; [3]): A (76-100); Disease (% Control) PHSPMA, based on AUDPC (Phaeosphaeria maydis; [4]): B (51-75); Disease (% Control) PHSPMA, based on AUDPC (Phaeosphaeria maydis; [5]): A (76-100); Disease (% Control) PHSPMA, based on AUDPC (Phaeosphaeria maydis; [6]): A (76-100)
